{"source": "patent US10047078B2", "about": "“Aminothiazole compounds” (National Health Research Institutes, priority 2016, dated 2018)", "key": {"Colo205 xenografts": {"system": "Colo205 xenografts", "assay": "Xenograft efficacy, Colo205 model", "type": "in vivo", "conditions": "Colo205 xenografts in nude mice; PO 50 mg/kg, 5 times a week for 2 weeks; 50 mg/kg", "procedure": "(§1) Male nude mice (Nu-Fox1^nu) of 8 weeks old were purchased from BioLASCO (Taipei, Taiwan, R.O.C.). Human colorectal Colo205, pancreatic Mia-PaCa 2 tumor cells or MOLM-13, 32D-ITD/D835Y leukemia cells were inoculated subcutaneously at 1×10^6 cells each in the nude mice. All human cancer cells were detected as free of Mycoplasma spp before they were injected into animals. The tumor cells grow as xenograft tumors and the tumor size reached approximately 200-250 mm^3 in the nude mice ready for dose treatments. Test compounds were dissolved in 20% 2-hydroxypropy-β-cyclodextrin individually for oral gavage administrations to the nude mice. The tumor-bearing mice were treated with test compounds at various doses, 5 times a week for 2 weeks. Tumor sizes were measured by an electronic caliper and calculated with the formula: tumor size=length×width^2/2. Tumor size and animal body weight were measured twice a week before and after the tumor cell inoculation throughout the observation period. Uses of animals and experimental procedures thereof were approved by the Institutional Animal Care and Use Committee (IACUC) of the National Health Research Institutes."}, "[1]": {"system": "xenografts colo205 nude mice", "assay": "In vivo toxicity study, colo205 model", "procedure": "as §1, with “All human cancer cells were detected as free of Mycoplasma spp before they were injected into animals.” left out\nNine weeks old athymic nu/nu nude mice were administered orally at a once daily dose of 25, 50, 100, or 150 mg/kg on days 1-5 and 8-12."}, "32D-ITD/D835F cells": {"system": "32D-ITD/D835F cells", "assay": "MTS cell viability, 32D cells expressing FLT3-ITD mutant", "type": "cell-based, Murine", "conditions": "72-h incubation", "description": "(§2) The five leukemic 32D cell lines were purchased from American Type Culture Collection (ATCC, Manassas, Va., USA). Murine pro-B lymphocyte 32D cell lines were stably transfected with expression vectors that encoded human FLT3 containing an ITD mutation (32D-ITD cells), ITD and D835Y (32D-ITD/D835Y cells), ITD and D835V (32D-ITD/D835V cells), ITD and D835F (32D-ITD/D835F cells), and ITD and F691L (32D-ITD/F691L cells) mutations, which lead to constitutive activation of the FLT3 downstream signaling proteins. The cell viability was assessed with the MTS assay described in PLoS One, 2014, 9, e97116. 32D-ITD/D835Y, 32D-ITD/D835V, 32D-ITD/D835F, 32D-ITD/F691L, and 32D-ITD/F691I cells were seeded in 96-well plates at 1×10^4 cells/mL (100 μL per well) for 24-h incubation. Test compounds (at various concentrations in dimethyl sulfoxide (DMSO) were subsequently added to the culture medium for 72-h incubation. The cell viability was determined by the MTS assay (Promega, Madison, Wis., USA)."}, "32D-ITD/F691L cells": {"system": "32D-ITD/F691L cells", "assay": "MTS cell viability, 32D cells expressing FLT3-ITD mutant", "type": "cell-based, Murine", "conditions": "Mus musculus, 32D, 72 h, 72-h incubation", "description": "as §2"}, "32D-ITD/F691I cells": {"system": "32D-ITD/F691I cells", "assay": "MTS cell viability, 32D cells expressing FLT3-ITD mutant", "type": "cell-based, Murine", "conditions": "Mus musculus, 32D, 72 h, 72-h incubation", "description": "as §2"}, "ABL1 T315I": {"biological_target": "ABL1 T315I (Homo sapiens, UniProt P00519, T315I)", "assay": "SelectScreen biochemical kinase profiling", "type": "binding", "conditions": "100 nM, read-out: Inhibition (% of control) at 100 nM", "procedure": "(§3) Kinase inhibition data were obtained from SelectScreen® Biochemical Kinase Profiling Service.\n(§4) More specifically, test compounds were screened in 160 nL of a 1% DMSO solution in the well of a 384-well plate; kinase/antibody mixtures (8 μL) were diluted to a 2-fold working concentration in an appropriate kinase buffer (3.84 μL) and a 4-fold AlexaFluor® labeled tracer (4 μL) was prepared in the kinase buffer; incubation of test solutions was conducted at room is temperature for 60 minutes; and readout on a fluorescence plate reader was recorded and analyzed."}, "PDGFR A": {"biological_target": "PDGFR A (Homo sapiens, UniProt P16234)", "sequence (P16234 24-1089)": "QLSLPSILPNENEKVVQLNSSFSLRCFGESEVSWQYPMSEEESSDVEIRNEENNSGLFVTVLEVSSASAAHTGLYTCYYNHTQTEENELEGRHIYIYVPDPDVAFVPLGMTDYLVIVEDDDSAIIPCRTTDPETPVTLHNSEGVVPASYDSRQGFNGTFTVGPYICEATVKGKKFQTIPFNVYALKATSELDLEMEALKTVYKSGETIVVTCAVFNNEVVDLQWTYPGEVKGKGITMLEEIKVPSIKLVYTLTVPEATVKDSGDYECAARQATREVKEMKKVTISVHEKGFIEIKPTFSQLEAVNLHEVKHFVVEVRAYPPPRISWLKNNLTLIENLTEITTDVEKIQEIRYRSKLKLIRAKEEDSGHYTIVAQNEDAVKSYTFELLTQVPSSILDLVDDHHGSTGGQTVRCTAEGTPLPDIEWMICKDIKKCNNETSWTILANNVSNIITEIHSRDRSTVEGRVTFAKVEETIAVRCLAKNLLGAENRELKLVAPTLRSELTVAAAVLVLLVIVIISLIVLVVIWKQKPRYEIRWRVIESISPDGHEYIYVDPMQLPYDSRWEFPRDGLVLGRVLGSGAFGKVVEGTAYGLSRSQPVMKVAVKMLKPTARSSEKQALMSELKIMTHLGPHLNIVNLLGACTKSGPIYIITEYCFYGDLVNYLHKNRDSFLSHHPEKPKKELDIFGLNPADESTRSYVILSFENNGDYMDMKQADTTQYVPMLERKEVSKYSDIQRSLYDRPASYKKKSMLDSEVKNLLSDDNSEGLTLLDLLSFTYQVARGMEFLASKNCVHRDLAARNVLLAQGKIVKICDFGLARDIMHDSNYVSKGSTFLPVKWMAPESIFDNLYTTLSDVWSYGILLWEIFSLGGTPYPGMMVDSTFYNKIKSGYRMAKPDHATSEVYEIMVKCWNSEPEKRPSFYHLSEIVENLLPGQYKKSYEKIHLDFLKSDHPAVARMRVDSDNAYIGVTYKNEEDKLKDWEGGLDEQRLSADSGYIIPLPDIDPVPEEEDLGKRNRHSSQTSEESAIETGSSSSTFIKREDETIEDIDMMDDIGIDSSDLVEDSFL", "assay": "SelectScreen biochemical kinase profiling", "type": "binding", "procedure": "as §3, §4"}, "RET": {"biological_target": "RET (Homo sapiens, UniProt P07949)", "assay": "SelectScreen biochemical kinase profiling", "type": "binding", "conditions": "100 nM, read-out: Inhibition (% of control) at 100 nM", "procedure": "as §3, §4"}, "ABL1": {"biological_target": "ABL1 (Homo sapiens, UniProt P00519)", "assay": "SelectScreen biochemical kinase profiling", "type": "binding", "conditions": "100 nM, read-out: Inhibition (% of control) at 100 nM", "procedure": "as §3, §4"}, "SRC": {"biological_target": "SRC (Homo sapiens, UniProt P12931)", "sequence (P12931 whole entry)": "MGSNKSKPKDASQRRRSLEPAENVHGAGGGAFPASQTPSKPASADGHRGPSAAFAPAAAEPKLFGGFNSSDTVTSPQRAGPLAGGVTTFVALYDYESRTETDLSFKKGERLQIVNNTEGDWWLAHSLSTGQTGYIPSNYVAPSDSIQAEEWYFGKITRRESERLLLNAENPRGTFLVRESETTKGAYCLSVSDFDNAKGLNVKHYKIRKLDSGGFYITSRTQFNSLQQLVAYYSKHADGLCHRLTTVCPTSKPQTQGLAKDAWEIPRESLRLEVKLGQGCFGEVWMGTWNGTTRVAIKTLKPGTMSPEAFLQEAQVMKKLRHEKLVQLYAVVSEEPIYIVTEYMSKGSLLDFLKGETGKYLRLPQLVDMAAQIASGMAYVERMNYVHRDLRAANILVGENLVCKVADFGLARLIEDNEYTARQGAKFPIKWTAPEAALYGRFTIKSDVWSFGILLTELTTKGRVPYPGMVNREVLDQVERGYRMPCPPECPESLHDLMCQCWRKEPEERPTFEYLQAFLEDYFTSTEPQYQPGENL", "assay": "SelectScreen biochemical kinase profiling", "type": "binding", "procedure": "as §3, §4"}, "VEGFR2": {"biological_target": "VEGFR2 (Homo sapiens, UniProt P35968)", "sequence (P35968 20-1356)": "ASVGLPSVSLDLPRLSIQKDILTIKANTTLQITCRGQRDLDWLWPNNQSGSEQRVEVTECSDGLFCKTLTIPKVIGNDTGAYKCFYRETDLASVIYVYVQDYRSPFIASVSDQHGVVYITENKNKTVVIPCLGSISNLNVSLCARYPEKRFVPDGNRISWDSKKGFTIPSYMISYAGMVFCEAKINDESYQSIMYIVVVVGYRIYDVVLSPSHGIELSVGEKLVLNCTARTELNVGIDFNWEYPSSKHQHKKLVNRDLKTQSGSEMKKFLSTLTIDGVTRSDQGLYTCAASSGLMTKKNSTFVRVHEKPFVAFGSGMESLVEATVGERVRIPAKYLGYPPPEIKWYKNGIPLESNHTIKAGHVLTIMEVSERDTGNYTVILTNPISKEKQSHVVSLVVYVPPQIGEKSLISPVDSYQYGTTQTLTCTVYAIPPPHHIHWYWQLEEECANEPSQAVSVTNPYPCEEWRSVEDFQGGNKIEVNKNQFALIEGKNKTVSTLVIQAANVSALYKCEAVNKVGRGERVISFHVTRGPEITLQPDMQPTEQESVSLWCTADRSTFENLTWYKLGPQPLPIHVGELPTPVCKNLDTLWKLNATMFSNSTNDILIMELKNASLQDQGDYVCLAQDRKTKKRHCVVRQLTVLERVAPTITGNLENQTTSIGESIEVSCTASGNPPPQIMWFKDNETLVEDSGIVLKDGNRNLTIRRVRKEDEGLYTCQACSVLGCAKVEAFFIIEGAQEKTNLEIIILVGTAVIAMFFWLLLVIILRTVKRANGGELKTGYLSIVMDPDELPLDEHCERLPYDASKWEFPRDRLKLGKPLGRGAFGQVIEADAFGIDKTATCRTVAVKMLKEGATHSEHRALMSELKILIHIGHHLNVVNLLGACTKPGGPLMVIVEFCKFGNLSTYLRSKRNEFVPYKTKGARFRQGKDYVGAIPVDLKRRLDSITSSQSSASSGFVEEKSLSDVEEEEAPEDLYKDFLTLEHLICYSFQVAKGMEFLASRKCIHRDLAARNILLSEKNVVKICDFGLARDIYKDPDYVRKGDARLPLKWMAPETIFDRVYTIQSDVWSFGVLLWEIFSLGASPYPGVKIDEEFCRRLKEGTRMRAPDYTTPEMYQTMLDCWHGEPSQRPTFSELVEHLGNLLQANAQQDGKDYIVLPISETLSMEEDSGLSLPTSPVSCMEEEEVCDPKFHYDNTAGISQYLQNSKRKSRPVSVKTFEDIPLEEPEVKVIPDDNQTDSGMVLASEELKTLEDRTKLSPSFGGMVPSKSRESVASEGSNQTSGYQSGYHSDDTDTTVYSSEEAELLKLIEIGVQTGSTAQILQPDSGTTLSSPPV", "assay": "SelectScreen biochemical kinase profiling", "type": "binding", "procedure": "as §3, §4"}, "KIT": {"biological_target": "KIT (Homo sapiens, UniProt P10721)", "sequence (P10721 26-976)": "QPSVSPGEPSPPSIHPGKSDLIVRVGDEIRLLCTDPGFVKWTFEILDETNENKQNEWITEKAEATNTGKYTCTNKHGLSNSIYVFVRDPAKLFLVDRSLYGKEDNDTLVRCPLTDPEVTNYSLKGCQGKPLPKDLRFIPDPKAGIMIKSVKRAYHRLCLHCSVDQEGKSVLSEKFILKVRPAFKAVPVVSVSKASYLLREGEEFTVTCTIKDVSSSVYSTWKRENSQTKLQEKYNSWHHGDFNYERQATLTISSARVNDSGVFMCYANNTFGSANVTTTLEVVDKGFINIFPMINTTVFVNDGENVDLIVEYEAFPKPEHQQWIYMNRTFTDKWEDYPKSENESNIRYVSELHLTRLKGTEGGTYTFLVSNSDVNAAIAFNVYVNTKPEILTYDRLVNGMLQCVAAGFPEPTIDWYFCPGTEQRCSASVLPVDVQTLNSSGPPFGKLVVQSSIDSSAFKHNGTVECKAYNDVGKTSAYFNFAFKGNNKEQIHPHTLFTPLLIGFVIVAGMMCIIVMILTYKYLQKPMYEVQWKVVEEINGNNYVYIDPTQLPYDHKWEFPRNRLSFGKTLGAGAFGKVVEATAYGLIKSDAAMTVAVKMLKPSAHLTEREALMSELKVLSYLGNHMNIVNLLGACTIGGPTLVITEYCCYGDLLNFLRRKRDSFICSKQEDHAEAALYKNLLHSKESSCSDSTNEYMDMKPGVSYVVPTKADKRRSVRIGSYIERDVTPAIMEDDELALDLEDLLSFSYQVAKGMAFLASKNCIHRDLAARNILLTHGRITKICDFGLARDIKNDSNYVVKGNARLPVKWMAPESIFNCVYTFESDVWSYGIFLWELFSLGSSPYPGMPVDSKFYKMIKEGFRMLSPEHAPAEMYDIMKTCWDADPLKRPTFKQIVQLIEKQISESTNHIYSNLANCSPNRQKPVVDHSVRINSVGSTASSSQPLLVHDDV", "assay": "SelectScreen biochemical kinase profiling", "type": "binding", "procedure": "as §3, §4"}, "PDGFR B": {"biological_target": "PDGFR B (Homo sapiens, UniProt P09619)", "sequence (P09619 33-1106)": "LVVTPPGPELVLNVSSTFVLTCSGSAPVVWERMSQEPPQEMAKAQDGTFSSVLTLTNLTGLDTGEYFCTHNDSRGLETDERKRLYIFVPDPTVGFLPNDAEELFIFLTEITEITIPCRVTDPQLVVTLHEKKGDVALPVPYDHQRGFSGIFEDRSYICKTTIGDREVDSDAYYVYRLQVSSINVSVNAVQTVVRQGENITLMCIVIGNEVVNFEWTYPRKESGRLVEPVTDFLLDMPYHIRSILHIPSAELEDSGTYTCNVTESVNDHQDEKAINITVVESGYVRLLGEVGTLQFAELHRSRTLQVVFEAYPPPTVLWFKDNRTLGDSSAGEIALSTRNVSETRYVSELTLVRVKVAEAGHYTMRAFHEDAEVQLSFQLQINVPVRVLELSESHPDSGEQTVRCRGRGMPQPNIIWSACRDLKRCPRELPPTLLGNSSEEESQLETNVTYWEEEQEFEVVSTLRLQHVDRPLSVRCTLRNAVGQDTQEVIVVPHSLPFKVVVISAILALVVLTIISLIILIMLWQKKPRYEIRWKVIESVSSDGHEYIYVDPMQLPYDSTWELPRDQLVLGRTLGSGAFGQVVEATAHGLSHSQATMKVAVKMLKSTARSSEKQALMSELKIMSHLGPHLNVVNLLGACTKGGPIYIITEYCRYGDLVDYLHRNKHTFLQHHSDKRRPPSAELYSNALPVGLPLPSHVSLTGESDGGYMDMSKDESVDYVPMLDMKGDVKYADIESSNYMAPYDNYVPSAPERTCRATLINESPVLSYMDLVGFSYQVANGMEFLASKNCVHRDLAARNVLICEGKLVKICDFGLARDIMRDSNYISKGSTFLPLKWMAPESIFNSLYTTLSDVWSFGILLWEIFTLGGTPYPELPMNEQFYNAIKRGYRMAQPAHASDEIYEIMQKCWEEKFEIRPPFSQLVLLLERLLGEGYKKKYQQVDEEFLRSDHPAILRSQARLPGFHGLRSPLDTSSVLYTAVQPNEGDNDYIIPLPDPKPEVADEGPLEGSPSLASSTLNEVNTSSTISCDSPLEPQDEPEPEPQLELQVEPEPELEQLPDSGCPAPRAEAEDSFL", "assay": "SelectScreen biochemical kinase profiling", "type": "binding", "procedure": "as §3, §4"}, "[2]": {"conditions": "100 nM, read-out: Inhibition (% of control) at 100 nM"}, "[3]": {"conditions": "read-out: IC50 value (number in the bracket)"}}}
{"compound": "CCc1cc(NC(=O)Nc2ccc(-c3cnc(Nc4cc(N5CCN(CCO)CC5)nc(C)n4)s3)cc2)no1", "note": "[Compound 1, 1-(5-Ethylisoxazol-3-yl)-3-(4-(2-((6-(4-(2-hydroxyethyl)piperazin-1-yl)-2-methylpyrimidin-4-yl)amino)thiazol-5-yl)phenyl)urea]", "values": [{"measurement": "Day 18 TGI", "setting": "Colo205 xenografts", "result": ">80", "unit": "%"}, {"measurement": "Mortality (nude mice n = 6)", "setting": "[1]; PO 50 mg/kg once daily, 5 on 2 off × 2", "result": "0/6 (50 mg/kg)"}, {"measurement": "Tolerability", "setting": "[1]; PO once daily, Compounds 1, 2, 3, 4, 6 at 50, 50, 100, 150 and 25 mg/kg", "result": "well tolerated"}, {"measurement": "GI50", "setting": "32D-ITD/D835F cells", "result": 3.2, "unit": "nM"}, {"measurement": "GI50", "setting": "32D-ITD/D835F cells; Mus musculus, 32D, 72 h", "result": "< 6", "unit": "nM"}, {"measurement": "GI50", "setting": "32D-ITD/F691L cells", "result": 8.5, "unit": "nM"}, {"measurement": "GI50", "setting": "32D-ITD/F691I cells", "result": 45, "unit": "nM"}, {"measurement": "inhibition at 0.1 µM", "setting": "ABL1 T315I", "result": 65, "unit": "%"}, {"measurement": "inhibition at 0.1 µM", "setting": "PDGFR A; [2]", "result": 95, "unit": "%"}, {"measurement": "IC50", "setting": "PDGFR A; [3]", "result": 9, "unit": "nM"}, {"measurement": "inhibition at 0.1 µM", "setting": "RET", "result": 96, "unit": "%"}, {"measurement": "inhibition at 0.1 µM", "setting": "ABL1", "result": 81, "unit": "%"}, {"measurement": "inhibition at 0.1 µM", "setting": "SRC; [2]", "result": 96, "unit": "%"}, {"measurement": "IC50", "setting": "SRC; [3]", "result": 6, "unit": "nM"}, {"measurement": "inhibition at 0.1 µM", "setting": "VEGFR2; [2]", "result": 95, "unit": "%"}, {"measurement": "IC50", "setting": "VEGFR2; [3]", "result": 19, "unit": "nM"}, {"measurement": "inhibition at 0.1 µM", "setting": "KIT; [2]", "result": 66, "unit": "%"}, {"measurement": "IC50", "setting": "KIT; [3]", "result": 41, "unit": "nM"}, {"measurement": "inhibition at 0.1 µM", "setting": "PDGFR B; [2]", "result": 82, "unit": "%"}, {"measurement": "IC50", "setting": "PDGFR B; [3]", "result": 19, "unit": "nM"}]}
